Measured values from publication PMC6272185 (Molecules, 2015).
Values after ≈ are worked out from the molar mass of the structure shown. Structures can show the parent of a compound that is named as a salt. Where two headings read alike, the source gives them in different places.

Legend:
[1] = tested on: M. bovis BCG; experiment: microbe, parasite or virus in culture; type: cell-based, Mycobacterium bovis BCG; conditions: Mycobacterium tuberculosis variant bovis BCG, BCG, 168 h; for MIC50: read-out: MIC50 M. bovis BCG; for MIC90: read-out: MIC90 M. bovis BCG
[2] = Macrophage cytotoxicity, LDH release assay; type: cell-based, murine; conditions: mouse, RAW 264.7 macrophages stimulated with LPS; LPS-stimulated RAW 264.7, LDH release; mean ± SD, n = 3
Protocol: Cytotoxic effects of chalcone samples on RAW 264.7 cell viability in cultures stimulated with LPS were determined using the LDH (lactate dehydrogenase) release assay as previously described [58]. Cytoplasmic enzyme LDH release into cell culture supernatants was detected using a commercial LDH kit (Doles, GO, Brazil). Cell death was expressed as percentage of LDH release, which was calculated using the following formula: percentage of LDH release = 100 × (test LDH release − spontaneous release)/(maximum release − spontaneous release). The maximum release was determined following dissolution of cell monolayers using 1% (vol/vol) Triton X-100. The spontaneous release was determined in supernatants from cultures incubated in the presence of LPS and DMSO, used as a solvent for chalcone samples.

[3] = tested on: TNF-α production by LPS-stimulated RAW 264.7 macrophages; experiment: Inhibition of TNF-α production by LPS-stimulated macrophages (ELISA); type: cell-based, murine; conditions: for IC50: Mus musculus, read-out: IC50 TNF-α
[4] = tested on: NO production by LPS-stimulated RAW 264.7 macrophages; experiment: Inhibition of NO production by LPS-stimulated macrophages (Griess); type: cell-based, murine; conditions: mean ± SD, n = 3
[5] = tested on: IL-1β production by LPS-stimulated RAW 264.7 macrophages; experiment: Inhibition of IL-1β production by LPS-stimulated macrophages (ELISA); type: cell-based, murine; conditions: for IC50: Mus musculus, RAW264.7, 24 h, read-out: IC50 IL-1β
Protocol: (§1) Murine RAW 264.7 macrophage cell line (American Type Culture Collection, Manassas, VA, USA), was cultured in Dulbecco’s modified Eagle’s medium (DMEM-F12) supplemented with 10% Fetal Bovine Serum (FBS) and gentamicin (50 µg/mL) in 5% CO2 atmosphere at 37 °C. For experiments, the cells were seeded in 96-well plates (1 × 10^5 cells/well) and incubated for 24 h at 37 °C. For macrophage stimulation, the cell cultures were treated with LPS (1 µg/mL) and incubated for additional 24 h in the presence or absence of the chalcone samples (samples 1–41) that were used at concentrations of 100, 20, 4 and 0.8 µg/mL. In some experiments, a nitric oxide (NO) inhibitor, L-NMMA (20 μg/mL), was used as a positive control of NO inhibition, and a non-steroidal anti-inflammatory drug indomethacin, known to inhibit production of prostaglandins, was used as a positive control of PGE2 inhibition.
(§2) The frozen culture supernatants samples were thawed and immediately analyzed using commercially available enzyme-linked immunosorbent assay (ELISA) kits to measure TNF-α, IL-1β (BD Biosciences) and PGE2 (R&D Systems, Minneapolis, MN, USA), according to the manufacturer’s instructions. Standard curves for each mediator were generated using reference cytokine concentrations supplied by the manufacturer. Nitric oxide (NO) generation was assessed by the Griess method to measure nitrites, which are stable breakdown NO products.

[6] = tested on: PGE2 production by LPS-stimulated RAW 264.7 macrophages; experiment: Inhibition of PGE2 production by LPS-stimulated macrophages (ELISA); type: cell-based, murine; conditions: for IC50: Mus musculus, RAW264.7, 24 h, read-out: IC50 PGE2; for prostaglandin (PGE2) value: only LPS-treated cells 436.0 ± 5.8 pg/mL
Protocol: as §1, §2

[7] = tested on: M. tuberculosis H37Rv; experiment: microbe, parasite or virus in culture; type: cell-based, Mycobacterium tuberculosis; conditions: Mycobacterium tuberculosis
[8] = tested on: M. tuberculosis M299; experiment: microbe, parasite or virus in culture; type: cell-based, Mycobacterium tuberculosis; conditions: Mycobacterium tuberculosis, M299, 120 h
[9] = RAW264.7, LPS (1 µg/mL)-stimulated RAW 264.7, 24 h, mean ± SD, n = 3
[10] = Mus musculus, RAW264.7, 24 h, LPS (1 µg/mL)-stimulated RAW 264.7, 24 h, read-out: IC50 NO
[11] = H37RV, 120 h, read-out: MIC50 M. tuberculosis H37Rv
[12] = Table 5, same values as M. tuberculosis H37Rv in Table 3, read-out: MIC50
[13] = LPS (1 µg/mL)-stimulated RAW 264.7, 24 h, read-out: IC50 NO
[14] = Mus musculus, RAW264.7, 24 h, read-out: IC50 NO, LPS (1 µg/mL)-stimulated RAW 264.7, 24 h

SMILES	MIC50 [1] [µM]	MIC90 [1] [µM]	IC50 [2] [µM]	IC50 [3, 9] [µM]	IC50 [4, 10] [µM]	IC50 [5] [µM]	IC50 [6] [µM]	further results
Cc1ccc(C(=O)/C=C/c2ccc(Cl)cc2)cc1 [Chalcone 18]	71.3 ± 4.8 (≈ 18.3 µg/mL)	323 ± 7.1 (≈ 83 µg/mL)	304 ± 4.2	> 390	150 ± 3.8	–	–	–
COc1ccc(C(=O)/C=C/c2ccc(Cl)cc2)cc1 [Chalcone 26]	91.2 ± 5 (≈ 24.9 µg/mL)	287 ± 7.8 (≈ 78.2 µg/mL)	> 367	> 367	25.3 ± 3.9	> 367	57.7 ± 1.9	–
Cc1ccc(C(=O)/C=C/c2ccccc2Cl)cc1 [Chalcone 23]	> 390	> 390	> 390	> 390	> 390	–	–	–
COc1ccc2c(c1)c(CC(=O)O)c(C)n2C(=O)c1ccc(Cl)cc1 [indomethacin, reference compound]	–	–	–	–	–	–	–	prostaglandin (PGE2) value ([6]; 0.0004 µg/mL): 340.7 ± 1.1 pg/mL; prostaglandin (PGE2) value ([6]; 0.004 µg/mL): 271.6 ± 2.6 pg/mL; prostaglandin (PGE2) value ([6]; 0.04 µg/mL): 171.8 ± 1.2 pg/mL; prostaglandin (PGE2) value ([6]; 0.2 µg/mL): 11.8 ± 1.9 pg/mL
COc1ccc(/C=C/C(=O)c2ccc(C)cc2)cc1OC [Chalcone 22]	> 354	> 354	> 354	> 354	> 354	–	–	–
COc1ccc(/C=C/C(=O)c2ccccc2Cl)cc1OC [Chalcone 36]	270 ± 3.9 (≈ 81.6 µg/mL)	> 330	> 330	> 330	188 ± 4.1	–	–	–
O=C(/C=C/c1ccccc1)c1ccccc1 [Chalcone 1, 1,3-diphenyl-2-propenone, reference compound]	137 ± 4.7 (≈ 28.6 µg/mL)	383 ± 9.1 (≈ 79.8 µg/mL)	177 ± 9.5	> 480	41.6 ± 2	–	–	–
COc1ccc(/C=C/C(=O)c2ccc(Br)cc2)cc1OC [Chalcone 14]	> 288	> 288	> 288	> 288	58.9 ± 6.8	–	–	–
COc1ccc(C(=O)/C=C/c2ccc(N(C)C)cc2)cc1 [Chalcone 27]	309 ± 5 (≈ 86.9 µg/mL)	> 355	226 ± 3.5	> 355	44.6 ± 5.2	–	–	–
O=C(/C=C/c1ccc(F)cc1)c1ccccc1Cl [Chalcone 32]	> 384	> 384	> 384	> 384	> 384	–	–	–
COc1ccc(/C=C/C(=O)c2ccc(Br)cc2)cc1 [Chalcone 13]	221 ± 3.6 (≈ 70 µg/mL)	> 315	> 315	> 315	52.9 ± 3.6	–	–	–
O=C(/C=C/c1ccc([N+](=O)[O-])cc1)c1ccccc1 [Chalcone 37]	> 395	> 395	> 395	> 395	58.6 ± 4.5	> 395	322 ± 3.7	–
COc1ccc(/C=C/C(=O)c2ccc(C)cc2)cc1 [Chalcone 21]	33.3 ± 5.4 (≈ 8.4 µg/mL)	362 ± 5.9 (≈ 91.4 µg/mL)	> 396	> 396	30.6 ± 4.7	> 396	50.1 ± 1	MIC90 ([7]; H37RV, 120 h): 368 ± 5.2 µM (≈ 92.9 µg/mL); MIC50 [7, 11]: 66.9 ± 6.2 µM (≈ 16.9 µg/mL); MIC50 [7, 12]: 66.9 ± 6.2 µM (≈ 16.9 µg/mL)
O=C(/C=C/c1ccccn1)c1ccccc1 [Chalcone 7]	35.8 ± 7.2 (≈ 7.49 µg/mL)	441 ± 9.5 (≈ 92.2 µg/mL)	> 478	> 478	> 478	–	–	MIC90 ([7]; H37RV, 120 h): > 478 µM; MIC50 [7, 11]: > 478 µM
O=C(/C=C/c1ccc([N+](=O)[O-])cc1)c1ccc(Br)cc1 [Chalcone 38]	97.4 ± 4.2 (≈ 32.4 µg/mL)	221 ± 5.6 (≈ 73.3 µg/mL)	> 301	> 301	> 301	–	–	–
O=C(/C=C/c1ccc2c(c1)OCO2)c1ccccc1Cl [Chalcone 35]	> 349	> 349	> 349	> 349	160 ± 4.7	–	–	–
COc1ccc(C(=O)/C=C/c2ccc([N+](=O)[O-])cc2)cc1 [Chalcone 40]	14.5 ± 3.1 (≈ 4.11 µg/mL)	> 353	> 353	> 353	–	> 353	> 413	IC50 [4, 13]: 13.5 ± 5.5 µM; IC50 [4, 14]: < 21 µM; MIC90 ([7]; H37RV, 120 h): 352 ± 5.9 µM (≈ 99.7 µg/mL); MIC50 [7, 11]: 131.7 ± 1.3 µM (≈ 37.3 µg/mL); MIC50 [7, 12]: 131.7 ± 1.3 µM (≈ 37.3 µg/mL)
O=C(/C=C/c1ccc([N+](=O)[O-])cc1)c1ccccc1Cl [Chalcone 41]	30.5 ± 4.7 (≈ 8.77 µg/mL)	247 ± 7.2 (≈ 71 µg/mL)	> 348	68.5 ± 3.3	–	13.5 ± 3.9	67.4 ± 2.2	inhibition of IL-1β ([5]; LPS-stimulated RAW 264.7): potent inhibitors; inhibition of TNF-α ([3]; LPS-stimulated RAW 264.7): strongly inhibit; IC50 [4, 13]: 11.2 ± 5 µM; IC50 [4, 14]: < 21 µM; MIC90 ([7]; H37RV, 120 h): 275 ± 6.7 µM (≈ 79.2 µg/mL); MIC50 [7, 11]: 82.1 ± 4.3 µM (≈ 23.6 µg/mL); MIC50 [7, 12]: 82.1 ± 4.3 µM (≈ 23.6 µg/mL)
COc1ccc(C(=O)/C=C/c2ccc3c(c2)OCO3)cc1 [Chalcone 28]	> 354	> 354	> 354	> 354	–	> 354	22.1 ± 0.63	IC50 [4, 13]: 14.9 ± 4.1 µM; IC50 [4, 14]: < 21 µM
COc1ccc(/C=C/C(=O)c2ccccc2)cc1 [Chalcone 6]	–	–	> 420	–	–	–	–	IC50 ([3]; RAW264.7, 24 h): > 420 µM; IC50 [4, 14]: > 420 µM
O=C(/C=C/c1ccc2c(c1)OCO2)c1ccc(Br)cc1 [Chalcone 12]	84.9 ± 4.7 (≈ 28.1 µg/mL)	229.6 ± 2.2 (≈ 76 µg/mL)	> 302	> 302	–	> 302	50.3 ± 0.3	IC50 [4, 13]: 19.6 ± 3.3 µM; IC50 [4, 14]: < 21 µM
Cc1ccc(C(=O)/C=C/c2ccc3c(c2)OCO3)cc1 [Chalcone 20]	> 376	> 376	> 376	> 376	30.1 ± 1.2	> 376	147.4 ± 1.2	–
COc1ccc(/C=C/C(=O)c2ccccc2Cl)cc1 [Chalcone 34]	> 367	> 367	> 367	> 367	> 367	–	–	–
Cc1ccc(C(=O)/C=C/c2ccc(F)cc2)cc1 [Chalcone 17]	61.5 ± 7.6 (≈ 14.8 µg/mL)	388 ± 7.3 (≈ 93.3 µg/mL)	290 ± 4.3	> 416	30.8 ± 4.5	> 416	> 417	MIC90 ([7]; H37RV, 120 h): > 416 µM; MIC50 [7, 11]: 63.8 ± 6.2 µM (≈ 15.3 µg/mL); MIC50 [7, 12]: 63.8 ± 6.2 µM (≈ 15.3 µg/mL)
Cc1ccc(C(=O)/C=C/c2ccccc2)cc1 [Chalcone 16]	> 450	> 450	> 450	> 450	> 450	–	–	–
Cc1ccc(C(=O)/C=C/c2ccc(N(C)C)cc2)cc1 [Chalcone 19]	56.4 ± 4.4 (≈ 15 µg/mL)	322.7 ± 1.7 (≈ 85.6 µg/mL)	> 377	> 377	27.8 ± 3.8	> 377	> 377	MIC90 ([7]; H37RV, 120 h): > 377 µM; MIC50 [7, 11]: 112 ± 6.4 µM (≈ 29.8 µg/mL); MIC50 [7, 12]: 112 ± 6.4 µM (≈ 29.8 µg/mL)
CO[C@H]1/C=C/O[C@@]2(C)Oc3c(C)c(O)c4c(O)c(c(/C=N/N5CCN(C)CC5)c(O)c4c3C2=O)NC(=O)/C(C)=C\C=C\[C@H](C)[C@H](O)[C@@H](C)[C@@H](O)[C@@H](C)[C@H](OC(C)=O)[C@@H]1C [Rifampicin, rifampicin, reference compound]	0.01 ± 0.03 (≈ 0.00823 µg/mL)	0.2 ± 0.01 (≈ 0.165 µg/mL)	–	–	–	–	–	MIC50 [8]: 0.2 ± 0.18 µM (≈ 0.165 µg/mL); MIC90 [8]: 3.3 ± 0.16 µM (≈ 2.72 µg/mL); MIC90 ([7]; H37RV, 120 h): 0.15 ± 0.08 µM (≈ 0.123 µg/mL); MIC50 [7, 11]: 0.11 ± 0.02 µM (≈ 0.0905 µg/mL)
[H]/N=C(/NC)NCCC[C@H](N)C(=O)O [L-NMMA, N^G-Monomethyl-L-arginine acetate salt, reference compound]	–	–	–	–	78.3 ± 6.5	–	–	–
Cc1ccc(C(=O)/C=C/c2ccc([N+](=O)[O-])cc2)cc1 [Chalcone 39]	28.1 ± 5.4 (≈ 7.51 µg/mL)	344 ± 6.3 (≈ 92 µg/mL)	329 ± 3.9	> 373	114 ± 4.8	–	–	MIC90 ([7]; H37RV, 120 h): > 373 µM; MIC50 [7, 11]: > 373 µM
